Laboratory results published in a melting point compilation (Tetko et al.; mined from patent text by program, amines drawn as free bases though some values may be those of a salt).

melting point [°C]	SMILES
158 to 159	CN(Cc1ccc(NC(=O)C2=Cc3cc(-c4cccnc4)ccc3OCC2)cc1)C1CCOCC1
138 to 140	O=C(O)CCC(CS(=O)(=O)c1ccc2ccccc2c1)C(=O)N(CCC1CCCCC1)CCC1CCCCC1 (centres undefined)
238 to 240	COc1cc(-c2nc(-n3ccnc3)c3c(C)c(C#N)sc3n2)cc(OC)c1OC
130 to 133	CCOC(=O)C1[C@@H]2[C@@H](O)[C@@H]3O[C@H](c4ccc(F)cc4F)OC[C@H]3O[C@H]12 (some centres undefined)
210	N#Cc1c(N)nc2ccccc2c1Cl
155 to 157	COc1nc2ccccc2nc1NC(=O)N1CCN(c2cc(C)cc(C)c2)CC1
140 to 143	CCOCc1nc2cnc3cc(Br)ccc3c2n1CCN1CCN(C(=O)OC(C)(C)C)CC1
93.4 to 93.7	CCCCCOc1c(OC)ccc(C(=O)NCCc2ccc(OCc3ccccc3)cc2)c1CCO
71 to 78	CN(C)CCCCNC(=O)c1ccc(-c2nnc(CSCCOc3ccccc3)o2)cc1
184	Cc1nn2c(C(F)(F)F)cc(-c3ccc(C(F)(F)F)cc3)nc2c1C#N
172 to 174	O=C(O)c1c(Cl)ccc([N+](=O)[O-])c1Nc1ccc(OCc2ccccc2)cc1
162 to 163	O=C(O)c1ccc(Oc2nccs2)cc1
146 to 148	CCCc1c(OCCCOc2cccc(NC(=O)C(=O)O)c2C)ccc(C(C)=O)c1O
189 to 193	CC(=O)Oc1cccc2c1CCNC2=O
107 to 109	COC(=S)c1c[nH]c(-c2ccccc2)c1
99	OC(COc1ccc(Cl)cc1)(Cn1cncn1)Cn1cncn1
197 to 199	CCCCCC(CC(=O)Nc1cc(C(=O)O)ccc1C(C)(C)C)c1ccc(C(=O)CC)cc1OC (centres undefined)
> 300	Cn1c(=O)c2cnc(O)n2c2ccccc21
42 to 45	CCCCCCC/C=C/C(=O)NCC(C)C
228	CC(C)CN1CCCC[C@H]1CNc1nc(Oc2cccc3[nH]c(=O)c(N)nc23)cc(-c2ccc(C(F)(F)F)cc2)n1
174	O=c1ccc(N2CCC(CCCO)CC2)n[nH]1
111 to 113	COc1ccc(OC)c(C(=O)c2ccc(OCc3ccccc3)cc2)c1
151 to 152	O=C(O)CCc1conc1-c1ccc(F)c(Br)c1
217 to 219	O=C(CCl)Nc1ccc(Sc2ccc([N+](=O)[O-])cc2)cc1

melting point [°C]	SMILES
175	CCN(C)c1nsc(NC(=O)NC)c1C#N
96 to 98	CCOc1cc([C@@H](CCN(O)C=O)N2C(=O)c3cccc(NC(C)=O)c3C2=O)ccc1OC
169 to 171	Cc1cccc(C(=O)n2nc(Nc3cccc(OCC(=O)N4CCNCC4)c3)nc2N)c1
195 to 197	CCCCc1nnc2c(NC3CCCC3)nc3ccccc3n12
147 to 151	CCCCCCCCCCCCCCCCCC(=O)Nc1ccn(C2OC(CO)C(O)C2O)c(=O)n1 (centres undefined)
158 to 160	O=C(O)COCc1cc2cc(C(F)(F)F)ccc2n1S(=O)(=O)c1ccccc1
190 to 191	COCc1c(C(=O)OC(C)C)ncc2[nH]c3cccc(Oc4ccc(Cl)cn4)c3c12
137	CC1COc2cccc3[nH]c(=O)n1c23 (centres undefined)
195 to 196	O=C(SC[C@@H](SC(=O)c1ccccc1)C(=O)N1CCC[C@H]1C(=O)O)c1ccccc1
91 to 95	CSc1ccc(/C(=C/CO)c2ccc(I)cc2)cc1
51 to 54	NC(=O)CCCC1(c2ccccc2)CC(O)=CC(=O)O1 (centres undefined)
136 to 138	CC(C)(C)OC(=O)C(=[N+]=[N-])C(=O)C(C(=O)OC(C)(C)C)[C@H]1NC(=O)[C@@H]1Br (some centres undefined)
253 to 254	O=C(NCc1cccc([N+](=O)[O-])c1)c1[nH]c2ccc(Cl)cc2c1S(=O)(=O)c1ccccc1
190 to 191	CCCOc1ccccc1-c1ncc(C(=O)NC)c(=O)[nH]1
245 to 246	COc1cc2c(Cl)nc3c4ccccc4nc(Cl)c3c2cc1OC
79 to 80	CC(=O)C(=Cc1ccc2c(c1)OCO2)C(C)=O
141 to 142	CCCC(CCC)n1nnc2c(Nc3c(C)cc(C)cc3Br)nc(C)nc21
238 to 240	CC1CC2C3CCC4=CC(=O)C=CC4(C)C34OC4CC2(C)C1(O)C(=O)CO (centres undefined)
213 to 214	O=C(O)COc1cccc2c1CCc1sc(S(=O)(=O)C(c3cccc(F)c3)c3cccc(F)c3)nc1-2
226 to 227	Nc1nc(N)c(-c2cc(Cl)cc(Cl)c2Cl)c(C(F)(F)F)n1
163 to 164	CC(=O)NC(=N)NCCSCc1[nH]cnc1C
139 to 141	CC(=O)OCCn1cc(C(N)=O)c([N+](=O)[O-])n1
163	O=C(C=Cc1cccc(S(=O)(=O)NCc2ccc3c(c2)OCO3)c1)NO
54 to 56	C[C@H]1C=CC(Sc2ccccc2)=CC[C@H]1O

melting point [°C]	SMILES
160 to 162	Cn1c([N+](=O)[O-])cnc1-c1nc(CCl)cs1
> 300	O=C(O)c1ccc(C(=O)O)c(O)c1
188 to 189	CCOC(=O)NNC=Nc1nc(-c2ccc(C3CCCCC3)cc2)cs1
110	COc1cc(C)cc(OC)c1N(CC1CCCCC1)C(=O)CNC(=O)c1cc2ccccc2n1CCC(=O)O
> 250	CC(=O)NNc1ccnc2c(NC(=O)c3c(Cl)cccc3Cl)c(C)ccc12
264 to 265	CCCOc1ccccc1C1=NC(=O)C2=NC(C)=NC2=N1
148 to 149	CCCCC(=O)c1c(-c2ccc3cc(O)ccc3c2)oc2ccccc12
237	CCOc1ccc2c(c1)n(C1CCCCC1)c(=O)n2S(=O)(=O)c1ccc(NC(=O)NC(C)(C)C)cc1OC
108 to 110	CC1(C)C(=O)N(c2ccc(C#N)c(C(F)(F)F)c2)C(=O)N1CC1OC1CN1C(=O)N(c2ccc(C#N)c(C(F)(F)F)c2)C(=O)C1(C)C (centres undefined)
262 to 265	CC1CC2C3CCC4=CC(=O)C=CC4(C)C3(F)C(O)CC2(C)C1(O)C(=O)COC(=O)c1cccnc1 (centres undefined)
205 to 210	Cn1ccnc1Sc1ccc(Nc2c(C#N)cnc3cc(/C=C/CCN4CCCCC4)ccc23)cc1Cl
116 to 117	CS(=O)(=O)c1ccc(Oc2cc(OC3CCOCC3)c3[nH]c(C4=NCC(CCO)S4)cc3c2)cc1 (centres undefined)
38.4	CCOc1cc(C)c(CCc2ccc(OC)c(OC)c2)cc1OC
180 to 182	O=C(CN1C(=O)c2ccccc2S1(=O)=O)Nc1ccccc1
163 to 165	N#Cc1ccc(NC(=S)Nc2ncccc2OCc2ccccc2)cc1
110 to 114	COC(=O)Cn1c(C(=O)Nc2nc(-c3cc(Br)c(OC)cc3OC)c(CCC3CCCCC3)s2)cc2ccccc21
127 to 128	CNC(=O)C(N)Cc1ccc2ccccc2c1 (centres undefined)
71 to 72	Cc1cc2ncnn2nc1OCCOCCN1CCN(C(c2ccccc2)c2ccccc2)CC1
130 to 131	COc1cc(N)c(Cl)cc1C(=O)NCC1CCN(CCCCCC(=O)c2ccc(C)cc2)CC1
103 to 105	CC(C)(C)OC(=O)N1CCn2c(cc3ccccc32)C1
152 to 154	Cc1cn(C(C)(C)C(=O)N(C)c2ccccc2)nc1-c1ccccc1
288 to 289	O=C(NNC1=NS(=O)(=O)c2ccccc21)c1ccncc1
172	CCN(CC)CCOc1ccc(Nc2ncc3c(n2)N(C)C(=O)N(c2ccc(Cl)cc2Cl)C3)cc1
113 to 115	CCCCCCSc1nnc(N)s1

melting point [°C]	SMILES
108 to 111	CS(=O)(=O)OCc1cc(-c2ccc3c(c2)CCO3)nn(CC2CC2)c1=O
240 to 242	CCNC(=O)NCCc1cccc(-c2nc(=O)c3ccccc3s2)n1
152 to 154	COc1cc(-c2csc(-c3ccccc3)n2)cc2oc(=O)c(C)c(C)c12
222 to 225	CCOc1c(C(=O)O)cnc2nn(C)cc12
170 to 172	CCC(C)(C)Cc1ccc(C(=O)O)c(=O)[nH]1
198 to 202	O=c1[nH]nc(-c2cccc(OCc3csc(-c4ccccc4F)n3)c2)o1
187 to 189	OCc1ccc2c(c1)Nc1nccnc1S2
53 to 54	CCCCCCCCCCCC(=O)O[C@H](CCCCCCCCCCC)CC(=O)N[C@@H](CO)C(=O)OCc1ccccc1
75 to 77	Cc1nn(C)c(C)c1C(=O)NC/C=C\COc1cc(CN2CCCCC2)ccn1
122 to 124	S=c1sscc1-c1ccccc1
185 to 187	CCC(=O)Nc1ncc(Sc2ccc(N)cc2)s1
194	COC(=O)c1cc(/C=C/C(=O)O)ccc1Cl
144	C#CCOCc1c(C)nc2c(OCc3ccccc3C#N)cccn12
173 to 175	COc1cc[nH]c1C=C1C(=O)Nc2cccc(C#CC(O)c3ccc(OCC(=O)OC(C)(C)C)cc3)c21 (racemic)
110 to 112	CC(C)(C)N1CC2(CCN(Cc3ccccc3)CC2)OC1=O
74 to 76	CC(=O)CCCCCCCCc1ccc(O)c(O)c1
158 to 160	Clc1ccc2nc(NC3CCCCC3)n3nc(-c4ccco4)nc3c2c1
214 to 232	CN1CN(C)c2nc3n(Cc4ccc(F)cc4)c(=O)cc(O)n3c2C1=O
121 to 127	CC(C)(C)NC(=O)[C@@H]1CCCN1C(=O)[C@@H](O)[C@H](Cc1ccccc1)NC(=O)[C@H](CC(N)=O)NC(=O)COc1ccc(NC(=O)CN2CCOCC2)cc1
178 to 181	COC(=O)c1cc2cc(OC)ccc2[nH]1
225 to 228	CN1C(=O)Nc2cc(Cl)c(Cl)cc2C1(O)C(=O)NC(N)=S (centres undefined)

SMILES	melting point [°C]
CC(C)(C)OC(=O)c1ncn2c1[C@@H]1CCCN1C(=O)c1cc(F)ccc1-2	154 to 155
CCc1nc2ccccc2c(=O)n1-c1ccccc1C	93 to 94
CN1C(=O)C(F)N=C(c2ccccc2F)c2cc(Br)ccc21 (centres undefined)	127 to 130
CC(C)C#Cc1ncn2c1CN(C)C(=O)c1c(Cl)cccc1-2	128 to 130
C[C@@H]1C(=O)N(c2ccc(C#N)c(Cl)c2)[C@@H](C)[C@H]1O	149 to 151
Cc1ccc(C)c(P(=O)(C(=O)c2c(Cl)cccc2Cl)C(=O)c2c(Cl)cccc2Cl)c1	172
